Laboratory results from ChEMBL document CHEMBL1148658, “New HIV-1 reverse transcriptase inhibitors based on a tricyclic benzothiophene scaffold: synthesis, resolution, and inhibitory activity” (Bioorg Med Chem Lett, 2006).

Assays:
Type in all cases: cell-based
[1] = molecular target: Human immunodeficiency virus type 1 reverse transcriptase (Human immunodeficiency virus 1, UniProt Q72547); assay: Inhibition of wild type HIV1 reverse transcriptase in 293T cells
[2] = molecular target: Human immunodeficiency virus type 1 reverse transcriptase (Human immunodeficiency virus 1, UniProt Q72547, K103N); assay: Inhibition of HIV1 reverse transcriptase K103N mutant in 293T cells
[3] = molecular target: Human immunodeficiency virus type 1 reverse transcriptase (Human immunodeficiency virus 1, UniProt Q72547, Y181C); assay: Inhibition of HIV1 reverse transcriptase Y181C mutant in 293T cells
[4] = molecular target: Human immunodeficiency virus type 1 reverse transcriptase (Human immunodeficiency virus 1, UniProt Q72547, Y188C); assay: Inhibition of HIV1 reverse transcriptase Y188C mutant in 293T cells

Row | Structure (SMILES) | IC50 [1] [µM] | further results
1 | COC(=O)C1=C(N2CCCC2)[C@@H]2c3ccccc3S[C@]12C(=O)OC | > 20 | –
2 | COC[C@H]1CCCN1C1=C(C(=O)OC)[C@@]2(C(=O)OC)Sc3ccccc3[C@@H]12 | > 50 | –
3 | COC(=O)C1=C(N2CCC[C@H]2C)[C@@H]2c3ccccc3S[C@]12C(=O)OC | 11 | –
4 | CCOC(=O)C1=C(N2CCCC2)[C@H]2c3ccccc3S[C@@]12C(=O)OCC | > 20 | –
5 | CCOC(=O)C1=C(N2CCCC2)C2c3ccccc3SC12C(=O)OCC (configuration not stated) | > 20 | –
6 | COC[C@H]1CCCN1C1=C(C(=O)OC)[C@]2(C(=O)OC)Sc3ccccc3[C@H]12 | 38 | –
7 | COC(=O)C1=C(N2CCCCC2)[C@H]2c3ccccc3S[C@@]12C(=O)OC | 7.7 | –
8 | COC(=O)C1=C(N2CC=CC2)C2c3ccccc3SC12C(=O)OC (configuration not stated) | 5.1 | –
9 | CCOC(=O)C1=C(N2CCCC2)[C@@H]2c3ccccc3S[C@]12C(=O)OCC | > 20 | –
10 | COC(=O)C1=C(N2CCCC2)[C@H]2c3ccccc3S[C@@]12C(=O)OC | 0.8 | –
11 | COC(=O)C1=C(N2CCC[C@H]2C)[C@H]2c3ccccc3S[C@@]12C(=O)OC | 0.5 | –
12 | COC(=O)C1=C(N2CCCCC2)C2c3ccccc3SC12C(=O)OC (configuration not stated) | 8.9 | –
13 | CC(C)(C)OC(=O)C1=C(N2CCCC2)C2c3ccccc3SC12C(=O)OC(C)(C)C (configuration not stated) | > 20 | –
14 | COC[C@H]1CCCN1C1=C(C(=O)OC)C2(C(=O)OC)Sc3ccccc3C12 (some centres not stated) | 48 | –
15 | COC(=O)C1=C(N2CCCCC2)[C@@H]2c3ccccc3S[C@]12C(=O)OC | > 40 | –
16 | COC(=O)C1=C(N2CCCC2)C2c3ccccc3SC12C(=O)OC (configuration not stated) | 1.2 | IC50 [2]: > 30 µM; IC50 [3]: > 30 µM; IC50 [4]: > 30 µM
17 | COC(=O)C1=C(N2CCC[C@@H]2C)[C@@H]2c3ccccc3S[C@]12C(=O)OC | > 25 | –
18 | COC(=O)C1=C(N2CCC2)C2c3ccccc3SC12C(=O)OC (configuration not stated) | > 10 | –
19 | COC(=O)C1=C(N2CCC[C@@H]2C)[C@H]2c3ccccc3S[C@@]12C(=O)OC | 2.3 | –
